Key:
JAK1 = biological target: T1, JAK1 (Homo sapiens, UniProt P23458); assay: JAK1 enzyme activity assay (Thermo Fisher Selectscreen, Z-lyte); format: biochemical; conditions: read-out: JAK1 Inhibition IC50
T1 construct: purchased Thermo Fisher Scientific (SelectScreen service)
Experimental: (§1) The inhibitory potency of candidate compounds of JAK1, JAK2, and Tyk-2 was done at Thermo Fisher Scientific in their Selectscreen using a Z-lyte assay. Following are the assay details for each enzyme.
JAK1: The 2×JAK-enzyme/Tyr 06 mixture is prepared in 50 mM HEPES pH 6.5, 0.01% BRIJ-35, 10 mM MgCl2, 1 mM EGTA, 0.02% NaN3. The final 10 μL of the Kinase Reaction consists of 21.2-91.5 ng JAK1 and 2 μM Tyr 06 in 50 mM HEPES pH 7.0, 0.01% BRIJ-35, 10 mM MgCl2, 1 mM EGTA, 0.01% NaN3. After the one hour Kinase Reaction incubation, 5 μL of a 1:128 dilution of Development Reagent is added.
(§2) Data reduction for JAK1, JAK2 and TYK2 is done the same, independent of the enzyme run. In summary, background signal is defined in the absence of enzyme and uninhibited signal is defined in the presence of vehicle (2% DMSO) alone. Compounds were evaluated in an 11 point dose-response ranging from […] to 0.34 nM. IC50 values of compounds are determined using a 4 parameter logistical fit of emission ratio as a function of the concentration of compound.

JAK2 = biological target: T2, JAK2 (Homo sapiens, UniProt O60674); assay: JAK2 enzyme activity assay (Thermo Fisher Selectscreen, Z-lyte); format: biochemical; conditions: read-out: JAK2 Inhibition IC50
T2 construct: purchased Thermo Fisher Scientific (SelectScreen service)
T2 sequence (O60674 whole entry): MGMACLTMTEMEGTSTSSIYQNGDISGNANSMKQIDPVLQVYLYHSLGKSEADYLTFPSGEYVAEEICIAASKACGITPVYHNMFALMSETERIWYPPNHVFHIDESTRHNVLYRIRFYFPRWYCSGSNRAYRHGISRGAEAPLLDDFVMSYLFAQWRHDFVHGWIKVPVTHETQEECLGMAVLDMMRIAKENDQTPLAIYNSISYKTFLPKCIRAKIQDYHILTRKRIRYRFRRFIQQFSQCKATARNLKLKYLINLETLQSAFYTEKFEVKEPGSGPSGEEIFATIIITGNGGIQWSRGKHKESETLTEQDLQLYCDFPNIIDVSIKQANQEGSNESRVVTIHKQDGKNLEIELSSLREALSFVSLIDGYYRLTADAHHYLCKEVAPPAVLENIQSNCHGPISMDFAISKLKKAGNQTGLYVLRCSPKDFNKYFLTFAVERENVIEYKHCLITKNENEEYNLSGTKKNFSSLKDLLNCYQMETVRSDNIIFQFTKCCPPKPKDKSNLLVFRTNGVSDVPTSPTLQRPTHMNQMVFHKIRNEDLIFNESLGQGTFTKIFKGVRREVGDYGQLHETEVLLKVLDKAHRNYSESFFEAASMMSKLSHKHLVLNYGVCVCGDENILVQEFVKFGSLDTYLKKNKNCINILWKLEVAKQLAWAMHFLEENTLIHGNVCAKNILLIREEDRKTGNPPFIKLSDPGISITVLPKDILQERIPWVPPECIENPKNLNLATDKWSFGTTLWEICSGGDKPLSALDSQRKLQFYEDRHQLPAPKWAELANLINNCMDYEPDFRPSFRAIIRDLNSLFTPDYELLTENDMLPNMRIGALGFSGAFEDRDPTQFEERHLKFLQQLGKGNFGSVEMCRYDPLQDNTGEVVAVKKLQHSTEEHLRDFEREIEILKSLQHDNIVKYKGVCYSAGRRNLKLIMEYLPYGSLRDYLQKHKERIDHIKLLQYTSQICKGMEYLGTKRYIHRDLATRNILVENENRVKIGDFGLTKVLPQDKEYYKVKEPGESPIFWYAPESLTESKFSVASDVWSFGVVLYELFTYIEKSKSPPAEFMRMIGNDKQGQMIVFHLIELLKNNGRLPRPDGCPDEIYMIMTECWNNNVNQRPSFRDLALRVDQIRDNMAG
Experimental: as §1
JAK2: The 2×JAK2/Tyr 06 mixture is prepared in 50 mM HEPES pH 7.5, 0.01% BRIJ-35, 10 mM MgCl2, 1 mM EGTA. The final 10 μL Kinase Reaction consists of 0.12-0.5 ng JAK2 and 2 μM Tyr 06 in 50 mM HEPES pH 7.5, 0.01% BRIJ-35, 10 mM MgCl2, 1 mM EGTA. After the one hour Kinase Reaction incubation, 5 μL of a 1:128 dilution of Development Reagent A is added.
as §2

JAK3 (a.a. 781-1124) = biological target: T3, JAK3 (a.a. 781-1124) (Homo sapiens, UniProt P52333); assay: JAK3 enzyme activity assay (SRCtide phosphorylation, Caliper); format: biochemical; conditions: 1 uM ATP; read-out: JAK3 Inhibition IC50
T3 construct: JAK3 (a.a. 781-1124, ThermoFisher); purchased ThermoFisher
T3 sequence (P52333 781-1124): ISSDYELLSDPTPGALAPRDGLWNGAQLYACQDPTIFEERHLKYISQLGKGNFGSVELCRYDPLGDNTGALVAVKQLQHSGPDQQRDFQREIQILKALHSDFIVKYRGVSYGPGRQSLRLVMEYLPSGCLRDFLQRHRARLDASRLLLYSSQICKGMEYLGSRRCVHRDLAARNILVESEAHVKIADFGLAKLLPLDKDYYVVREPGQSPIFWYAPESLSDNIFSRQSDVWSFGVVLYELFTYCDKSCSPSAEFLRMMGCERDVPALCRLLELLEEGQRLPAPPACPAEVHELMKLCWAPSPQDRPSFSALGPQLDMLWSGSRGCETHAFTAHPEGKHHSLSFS
Experimental: The activity of JAK3 (a.a. 781-1124, ThermoFisher) was quantified by measuring the phosphorylation of SRCtide (FAM-GEEPLYWSFPAKKK-NH2). Kinase reactions were run in a 384-well Greiner plate with 2% final DMSO concentration under the buffer conditions of 20 mM HEPES, pH 7.5, 10 mM MgCl2, 0.01% BSA, and 0.0005% Tween-20. The kinase reaction components were 2.5 nM JAK3, 1 μM SRCtide peptide and 1 uM ATP. Examples were tested in dose-response starting at […] (11 concentrations, 3-fold serial dilution, duplicate reactions). The reactions were incubated at room temperature for 40 minutes, then stopped by adding a 1:1 volume of 30 mM EDTA in 20 mM HEPES, pH 7.5 (15 mM EDTA final). After the reaction was stopped, the phosphorylated and unphosphorylated peptides were separated and quantified using a Caliper LC3000/EZ-Reader system and HTS Well Analyzer Software (Caliper, A PerkinElmer Company, Hopkinton, Mass.). GraFit (Erithacus Software Ltd., Horley, U.K.) was used to calculate inhibitor potency by fitting dose-response data to the 4-parameter logistical IC50 equation.

Tyk-2 = biological target: T4, Tyk-2 (Homo sapiens, UniProt P29597); assay: Tyk-2 enzyme activity assay (Thermo Fisher Selectscreen, Z-lyte); format: biochemical; conditions: read-out: Tyk-2 Inhibition IC50
T4 construct: purchased Thermo Fisher Scientific (SelectScreen service)
T4 sequence (P29597 whole entry): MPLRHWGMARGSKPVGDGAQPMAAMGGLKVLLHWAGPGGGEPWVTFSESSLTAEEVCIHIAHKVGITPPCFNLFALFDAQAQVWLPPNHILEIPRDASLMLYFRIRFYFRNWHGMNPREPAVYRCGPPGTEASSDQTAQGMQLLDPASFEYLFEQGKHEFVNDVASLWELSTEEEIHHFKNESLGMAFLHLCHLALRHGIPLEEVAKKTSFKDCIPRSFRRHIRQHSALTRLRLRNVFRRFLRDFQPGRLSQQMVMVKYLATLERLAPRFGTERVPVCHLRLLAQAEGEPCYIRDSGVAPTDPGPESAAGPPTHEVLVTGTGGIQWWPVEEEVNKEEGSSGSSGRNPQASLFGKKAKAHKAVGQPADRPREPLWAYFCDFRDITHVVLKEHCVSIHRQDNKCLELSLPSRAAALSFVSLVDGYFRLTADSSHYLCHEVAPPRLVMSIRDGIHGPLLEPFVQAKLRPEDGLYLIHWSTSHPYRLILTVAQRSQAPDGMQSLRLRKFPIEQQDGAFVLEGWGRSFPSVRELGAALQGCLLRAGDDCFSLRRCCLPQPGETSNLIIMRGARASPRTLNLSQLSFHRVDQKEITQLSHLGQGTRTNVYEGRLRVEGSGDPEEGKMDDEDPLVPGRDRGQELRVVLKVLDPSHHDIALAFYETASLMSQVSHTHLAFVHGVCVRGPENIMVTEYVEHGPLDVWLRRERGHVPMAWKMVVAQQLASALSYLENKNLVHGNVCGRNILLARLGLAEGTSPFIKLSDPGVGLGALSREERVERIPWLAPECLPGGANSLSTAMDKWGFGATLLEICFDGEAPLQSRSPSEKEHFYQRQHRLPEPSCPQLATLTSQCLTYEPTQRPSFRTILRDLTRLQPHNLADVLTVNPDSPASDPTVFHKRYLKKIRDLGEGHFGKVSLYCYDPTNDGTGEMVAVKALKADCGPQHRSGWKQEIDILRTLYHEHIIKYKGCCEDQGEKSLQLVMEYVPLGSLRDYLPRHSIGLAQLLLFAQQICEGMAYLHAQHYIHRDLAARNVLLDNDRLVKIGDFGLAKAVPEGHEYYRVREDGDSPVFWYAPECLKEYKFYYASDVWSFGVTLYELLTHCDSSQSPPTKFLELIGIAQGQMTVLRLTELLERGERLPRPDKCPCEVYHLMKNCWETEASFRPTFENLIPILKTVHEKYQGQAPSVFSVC
Experimental: as §1
TYK2: The 2×TYK2/Tyr 03 mixture is prepared in 50 mM HEPES pH 6.5, 0.01% BRIJ-35, 10 mM MgCl2, 1 mM EGTA, 0.02% NaN3. The final 10 μL Kinase Reaction consists of 3.75-15 ng TYK2 and 2 μM Tyr 03 in 50 mM HEPES pH 7.0, 0.01% BRIJ-35, 10 mM MgCl2, 1 mM EGTA, 0.01% NaN3. After the one hour KinaseReaction incubation, 5 μL of a 1:4096 dilution of Development Reagent A is added.
as §2

[1] = test system: IL-2 stimulated STAT5 phosphorylation on Tyr694 (JAK1/3); assay: JAK1/3 cellular target modulation: IL-2 stimulated phospho-STAT5 in human PBMC; format: cell-based; conditions: IL-2 25 ng/ml, read-out: IL2-STAT5 IC50
Text: (§3) Target modulation was based upon the ability of a compound to inhibit JAK isoform specific phosphorylation of selected substrates. IL-2 stimulated STAT5 phosphorylation on Tyr694 was used to assess JAK1/3 compound selectivity. GM-CSF stimulated STAT5 phosphorylation on Tyr694 was used to assess JAK2 compound selectivity. IFNγ stimulated STAT1 phosphorylation on Tyr701 was used to assess JAK1/2 compound selectivity. IL-12 stimulated STAT4 phosphorylation on Tyr693 was used to assess JAK2/TYK2 compound selectivity. For all four assays, human PBMC from frozen stocks were thawed, pelleted, resuspended in complete media (90% RPMI, 10% heat inactivated FBS, 10 mM HEPES, 47 μM 2-ME, pen/strep) and placed in wells of a 96 well V-bottom plate at 200,000 per well in 120 μl complete media. Compounds were added as 15 μl per well of 10× working stock solutions in complete media with 1% DMSO (or medium with 1% DMSO for controls) and placed on a plate shaker in a 37° C. incubator with 5% CO2 for 1 hour with gentle shaking (setting of 3). Stimulation used the addition of soluble cytokines. For the JAK1/3 phospho-STAT5 assay, 15 μl of 10× working stock recombinant human IL-2 was added to a final concentration of 25 ng/ml. For the JAK2 phospho-STAT5 assay, 15 μl of 10× working stock recombinant human GM-CSF was added to a final concentration of 5 ng/ml. For the JAK1/2 phospho-STAT1 assay, 15 μl of 10× working stock of recombinant human IFNγ was added to a final concentration of 10 ng/ml. For the JAK2/TYK2 phospho-STAT4 assay, 15 μl of 10× working stock of recombinant human IL-12 was added to a final concentration of 1.7 ng/ml. Plates were then placed back on the plate shaker in the incubator for an additional 5, 5, 10, and 25 minutes respectively upon which the plates were removed from the incubator, sealed with a plate sealer and the cells pelleted at 400×g for 5 minutes. After pelleting, the media was removed by aspiration and the cells were lysed in assay specific cell lysis buffer. The levels of phospho-STAT5 were determined using a Phospho (Tyr694)STAT5a,b Whole Cell Lysate kit from Meso Scale Discovery. Levels of phospho-STAT1 were determined using a CST-PathScan Phospho-STAT1 (Tyr701) Sandwich ELISA kit. Levels of phospho-STAT4 were determined using a Phospho-STAT4 (Tyr693) Whole Cell Lysate kit from Meso Scale Discovery.

[2] = test system: IFNγ stimulated STAT1 phosphorylation on Tyr701 (JAK1/2); assay: JAK1/2 cellular target modulation: IFNγ stimulated phospho-STAT1 in human PBMC; format: cell-based; conditions: IFNγ 10 ng/ml, read-out: Infγ-STAT1 IC50
Text: as §3

[3] = test system: IL-12 stimulated STAT4 phosphorylation on Tyr693 (JAK2/TYK2); assay: JAK2/TYK2 cellular target modulation: IL-12 stimulated phospho-STAT4 in human PBMC; format: cell-based; conditions: IL-12 1.7 ng/ml, read-out: IL12-STAT4 IC50
Text: as §3

T1 sequence (P23458 whole entry): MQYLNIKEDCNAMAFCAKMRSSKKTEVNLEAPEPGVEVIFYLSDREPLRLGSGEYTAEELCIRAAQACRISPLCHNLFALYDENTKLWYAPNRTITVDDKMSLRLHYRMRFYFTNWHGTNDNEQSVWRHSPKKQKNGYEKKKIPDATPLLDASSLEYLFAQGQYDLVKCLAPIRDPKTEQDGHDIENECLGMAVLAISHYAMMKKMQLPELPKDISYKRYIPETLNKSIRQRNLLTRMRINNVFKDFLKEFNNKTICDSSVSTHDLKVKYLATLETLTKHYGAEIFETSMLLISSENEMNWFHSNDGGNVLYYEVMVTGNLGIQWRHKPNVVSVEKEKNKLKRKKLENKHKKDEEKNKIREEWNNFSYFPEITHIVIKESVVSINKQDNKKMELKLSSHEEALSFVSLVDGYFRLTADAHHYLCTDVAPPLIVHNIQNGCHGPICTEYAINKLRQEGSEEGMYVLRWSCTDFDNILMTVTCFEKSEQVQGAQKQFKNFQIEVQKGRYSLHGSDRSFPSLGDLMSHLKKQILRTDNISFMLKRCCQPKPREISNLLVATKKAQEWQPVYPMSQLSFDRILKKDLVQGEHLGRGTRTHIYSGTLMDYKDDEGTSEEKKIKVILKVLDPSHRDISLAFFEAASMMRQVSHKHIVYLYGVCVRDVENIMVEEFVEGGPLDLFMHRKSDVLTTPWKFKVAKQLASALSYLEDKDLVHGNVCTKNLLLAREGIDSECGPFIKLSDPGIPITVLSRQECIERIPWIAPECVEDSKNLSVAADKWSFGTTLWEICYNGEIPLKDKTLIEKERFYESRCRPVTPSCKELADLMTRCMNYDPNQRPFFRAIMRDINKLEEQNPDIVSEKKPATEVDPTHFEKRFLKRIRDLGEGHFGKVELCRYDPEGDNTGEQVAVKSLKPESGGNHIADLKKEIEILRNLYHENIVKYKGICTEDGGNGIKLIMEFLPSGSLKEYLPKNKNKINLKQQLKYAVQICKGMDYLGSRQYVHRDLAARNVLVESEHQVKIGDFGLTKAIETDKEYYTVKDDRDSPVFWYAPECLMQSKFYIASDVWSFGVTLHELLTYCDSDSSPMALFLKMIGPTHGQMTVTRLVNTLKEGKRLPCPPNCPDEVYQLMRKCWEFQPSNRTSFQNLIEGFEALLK

SMILES	IC50 (JAK1) [nM]	IC50 (JAK2) [nM]	IC50 (JAK3 (a.a. 781-1124)) [nM]	IC50 (Tyk-2) [nM]	IC50 [1] [nM]	IC50 [2] [nM]	IC50 [3] [nM]
CCOC(=O)c1cnc2[nH]ccc2c1NC1CC(NS(=O)(=O)c2cc(C#N)ccn2)C1 (mixture of isomers) [Example 1, ethyl 4-((3-((4-cyanopyridine)-2-sulfonamido)cyclobutyl)amino)-1H-pyrrolo[2,3-b]pyridine-5-carboxylate]	10 to 100	100 to 1000	10 to 100	100 to 1000	100 to 1000	> 1000	–
CCOC(=O)c1cnc2[nH]ccc2c1N[C@H]1C[C@@H](NS(=O)(=O)c2cccc(C#N)c2)C1 [Example 2, cis-Ethyl 4-((3-((3-cyanophenyl)sulfonamido)cyclobutyl)amino)-1H-pyrrolo[2,3-b]pyridine-5-carboxylate]	≤ 10	10 to 100	10 to 100	10 to 100	≤ 100	100 to 1000	–
CCOC(=O)c1cnc2[nH]ccc2c1N[C@H]1C[C@H](NS(=O)(=O)c2cccc(C#N)c2)C1 [Example 3, trans-Ethyl 4-((3-((3-cyanophenyl)sulfonamido)cyclobutyl)amino)-1H-pyrrolo[2,3-b]pyridine-5-carboxylate]	≤ 10	10 to 100	10 to 100	10 to 100	100 to 1000	100 to 1000	–
CCOC(=O)c1cnc2[nH]ccc2c1N[C@H]1C[C@H](NS(=O)(=O)c2cc(C#N)ccn2)C1 [Example 4, ethyl 4-(((1r,3r)-3-((4-cyanopyridine)-2-sulfonamido)cyclobutyl)amino)-1H-pyrrolo[2,3-b]pyridine-5-carboxylate]	10 to 100	10 to 100	10 to 100	100 to 1000	> 1000	–	–
CCOC(=O)c1cnc2[nH]ccc2c1N[C@H]1C[C@@H](NS(=O)(=O)c2cc(C#N)ccn2)C1 [Example 5, ethyl 4-(((1s,3s)-3-((4-cyanopyridine)-2-sulfonamido)cyclobutyl)amino)-1H-pyrrolo[2,3-b]pyridine-5-carboxylate]	≤ 10	10 to 100	10 to 100	10 to 100	100 to 1000	100 to 1000	> 1000
N#Cc1cccc(S(=O)(=O)N[C@H]2C[C@@H](Nc3c(-c4ncco4)cnc4[nH]ccc34)C2)c1 [Example 7, 3-cyano-N-((1s,3s)-3-((5-(oxazol-2-yl)-1H-pyrrolo[2,3-b]pyridin-4-yl)amino)cyclobutyl)benzenesulfonamide]	≤ 10	≤ 10	10 to 100	10 to 100	100 to 1000	100 to 1000	> 1000

The remaining lines, values ahead:

IC50 (JAK1) [nM]	IC50 (JAK2) [nM]	IC50 (JAK3 (a.a. 781-1124)) [nM]	IC50 (Tyk-2) [nM]	IC50 [1] [nM]	IC50 [2] [nM]	IC50 [3] [nM]	SMILES
≤ 10	≤ 10	10 to 100	10 to 100	≤ 100	–	> 1000	CCCS(=O)(=O)N[C@H]1C[C@@H](Nc2c(-c3ncco3)cnc3[nH]ccc23)C1 [Example 65, N-((1s,3s)-3-((5-(1,3-oxazol-2-yl)-1H-pyrrolo[2,3-b]pyridin-4-yl)amino)cyclobutyl)propane-1-sulfonamide]
≤ 10	10 to 100	100 to 1000	10 to 100	100 to 1000	> 1000	–	CNC(=O)c1ccnc(-c2cnc3[nH]ccc3c2N[C@H]2C[C@@H](NS(=O)(=O)c3cc(C#N)ccn3)C2)c1 [Example 67, 2-(4-(((1s,3s)-3-((4-cyanopyridine)-2-sulfonamido)cyclobutyl)amino)-1H-pyrrolo[2,3-b]pyridin-5-yl)-N-methylisonicotinamide]
10 to 100	100 to 1000	10 to 100	100 to 1000	> 1000	–	–	CCCS(=O)(=O)N[C@H]1C[C@@H](Nc2c(-c3cc(C(=O)NC)ccn3)cnc3[nH]ccc23)C1 [Example 68, N-methyl-2-(4-(((1s,3s)-3-(propylsulfonamido)cyclobutyl)amino)-1H-pyrrolo[2,3-b]pyridin-5-yl)isonicotinamide]
10 to 100	10 to 100	10 to 100	100 to 1000	100 to 1000	–	> 1000	CCCS(=O)(=O)N[C@H]1C[C@@H](Nc2c(-c3nnco3)cnc3[nH]ccc23)C1 [Example 80, N-((1s,3s)-3-((5-(1,3,4-oxadiazol-2-yl)-1H-pyrrolo[2,3-b]pyridin-4-yl)amino)cyclobutyl)propane-1-sulfonamide]
100 to 1000	100 to 1000	> 1000	> 1000	–	–	–	Cc1nnc(-c2cnc3[nH]ccc3c2N[C@H]2C[C@@H](NS(=O)(=O)c3cc(C#N)ccn3)C2)o1 [Example 83, 4-cyano-N-((1s,3s)-3-((5-(5-methyl-1,3,4-oxadiazol-2-yl)-1H-pyrrolo[2,3-b]pyridin-4-yl)amino)cyclobutyl)pyridine-2-sulfonamide]
